According to US6737383B1, “Herbicidal oxadiazolidines” (priority 1999, dated 2004):

Tests used:
[1] = system: cocklebur; assay: Test B pre/postemergence cocklebur; assay type: in vivo, Xanthium strumarium
Summary of the method: (§1)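 Test chemicals in a non-phytotoxic solvent mixture with surfactant were sprayed preemergence onto planted seeds and postemergence onto plants 2 to 18 cm tall (1- to 4-leaf stage). After twelve to sixteen days in a greenhouse, injury was visually rated against untreated controls from 0 (no effect) to 10 (complete control).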

[2] = system: corn; assay: Test B pre/postemergence corn; assay type: in vivo, Zea mays
Summary of the method: as §1

[3] = system: crabgrass; assay: Test B pre/postemergence crabgrass; assay type: in vivo, Digitaria sanguinalis
Summary of the method: as §1

[4] = system: giant foxtail; assay: Test B pre/postemergence giant foxtail; assay type: in vivo, Setaria faberii
Summary of the method: as §1

[5] = system: morningglory; assay: Test B pre/postemergence morningglory; assay type: in vivo, Ipomoea hederacea
Summary of the method: as §1

[6] = system: pigweed; assay: Test B pre/postemergence pigweed; assay type: in vivo, Amaranthus retroflexus
Summary of the method: as §1

[7] = system: rape; assay: Test B pre/postemergence rape; assay type: in vivo, Brassica napus
Summary of the method: as §1

[8] = system: soybean; assay: Test B pre/postemergence soybean; assay type: in vivo, Glycine max
Summary of the method: as §1

[9] = system: sugar beet; assay: Test B pre/postemergence sugar beet; assay type: in vivo, Beta vulgaris
Summary of the method: as §1

[10] = system: velvetleaf; assay: Test B pre/postemergence velvetleaf; assay type: in vivo, Abutilon theophrasti
Summary of the method: as §1

[11] = system: wheat; assay: Test B pre/postemergence wheat; assay type: in vivo, Triticum aestivum
Summary of the method: as §1

[12] = system: wild oat; assay: Test B pre/postemergence wild oat; assay type: in vivo, Avena fatua
Summary of the method: as §1

[13] = system: purple nutsedge; assay: Test B pre/postemergence purple nutsedge; assay type: in vivo, Cyperus rotundus
Summary of the method: as §1

[14] = system: rice; assay: Test B flood test rice; assay type: in vivo, Oryza sativa
Summary of the method: (§2)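 Flood test on plants grown to the 2-leaf stage; treated plants kept in greenhouse twelve to sixteen days, then visually rated against controls on a 0 (no effect) to 10 (complete control) scale.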

[15] = system: duck salad; assay: Test B flood test duck salad; assay type: in vivo, Heteranthera limosa
Summary of the method: as §2

[16] = system: bamyardgrass; assay: Test B flood test barnyardgrass; assay type: in vivo, Echinochloa crus-galli
Summary of the method: as §2

[17] = Postemergence, Rate 62 g/ha, scale 0 to 10, 0 is no effect, 10 is complete control
[18] = Postemergence, Rate 250 g/ha, scale 0 to 10, 0 no effect, 10 complete control
[19] = Preemergence, Rate 62 g/ha, scale 0 to 10, 0 is no effect, 10 is complete control
[20] = Preemergence, Rate 125 g/ha, scale 0 to 10 (0 no effect, 10 complete control)
[21] = Preemergence, Rate 250 g/ha, scale of 0 to 10 where 0 is no effect and 10 is complete control
[22] = Preemergence, Rate 500 g/ha, scale 0 (no effect) to 10 (complete control)
[23] = Rate 125 g/ha, Postemergence, scale 0 to 10, 0 no effect, 10 complete control
[24] = Rate 500 g/ha, Postemergence, 0 to 10 scale (0 no effect, 10 complete control)
[25] = Rate 125 g/ha, Postemergence section (flood test species), scale 0 to 10, 0 no effect, 10 complete control
[26] = Rate 500 g/ha, Postemergence section of Table B, 0 to 10 scale (0 no effect, 10 complete control)
[27] = flood test, listed under Postemergence, Rate 250 g/ha, scale 0 to 10, 0 no effect, 10 complete control

SMILES: Cc1ccccc1-n1c(=O)on(C(=O)N(c2ccc(F)cc2F)C(C)C)c1=O [Compound 25]
- Cocklebur plant response rating [1, 17]: 0
- Cocklebur plant response rating [1, 18]: 2
- Plant response rating, Cocklebur [1, 19]: 0
- Plant response rating, Cocklebur [1, 20]: 0
- Plant response rating, Cocklebur [1, 21]: 0
- Cocklebur plant response rating [1, 22]: 0
- Cocklebur plant response rating [1, 23]: 2
- Cocklebur plant response rating [1, 24]: 5
- Corn plant response rating [2, 17]: 0
- Corn plant response rating [2, 18]: 0
- Plant response rating, Corn [2, 19]: 0
- Plant response rating, Corn [2, 20]: 0
- Plant response rating, Corn [2, 21]: 0
- Corn plant response rating [2, 22]: 0
- Corn plant response rating [2, 23]: 0
- Corn plant response rating [2, 24]: 0
- Crabgrass plant response rating [3, 17]: 2
- Crabgrass plant response rating [3, 18]: 9
- Plant response rating, Crabgrass [3, 19]: 5
- Plant response rating, Crabgrass [3, 20]: 8
- Plant response rating, Crabgrass [3, 21]: 10
- Crabgrass plant response rating [3, 22]: 10
- Crabgrass plant response rating [3, 23]: 7
- Crabgrass plant response rating [3, 24]: 9
- Giant foxtail plant response rating [4, 17]: 3
- Giant foxtail plant response rating [4, 18]: 8
- Plant response rating, Giant foxtail [4, 19]: 5
- Plant response rating, Giant foxtail [4, 20]: 7
- Plant response rating, Giant foxtail [4, 21]: 10
- Giant foxtail plant response rating [4, 22]: 10
- Giant foxtail plant response rating [4, 23]: 5
- Giant foxtail plant response rating [4, 24]: 8
- Morningglory plant response rating [5, 17]: 1
- Morningglory plant response rating [5, 18]: 2
- Plant response rating, Morningglory [5, 19]: 0
- Plant response rating, Morningglory [5, 20]: 0
- Plant response rating, Morningglory [5, 21]: 0
- Morningglory plant response rating [5, 22]: 0
- Morningglory plant response rating [5, 23]: 1
- Morningglory plant response rating [5, 24]: 2
- Redroot pigweed plant response rating [6, 17]: 0
- Redroot pigweed plant response rating [6, 18]: 0
- Plant response rating, Redroot pigweed [6, 19]: 0
- Plant response rating, Redroot pigweed [6, 20]: 0
- Plant response rating, Redroot pigweed [6, 21]: 8
- Redroot pigweed plant response rating [6, 22]: 8
- Redroot pigweed plant response rating [6, 23]: 0
- Redroot pigweed plant response rating [6, 24]: 4
- Rape plant response rating [7, 17]: 0
- Rape plant response rating [7, 18]: 0
- Plant response rating, Rape [7, 19]: 0
- Plant response rating, Rape [7, 20]: 0
- Plant response rating, Rape [7, 21]: 0
- Rape plant response rating [7, 22]: 0
- Rape plant response rating [7, 23]: 0
- Rape plant response rating [7, 24]: 0
- Soybean plant response rating [8, 17]: 2
- Soybean plant response rating [8, 18]: 3
- Plant response rating, Soybean [8, 19]: 0
- Plant response rating, Soybean [8, 20]: 0
- Plant response rating, Soybean [8, 21]: 0
- Soybean plant response rating [8, 22]: 0
- Soybean plant response rating [8, 23]: 3
- Sugarbeets plant response rating [9, 17]: 0
- Sugarbeets plant response rating [9, 18]: 0
- Plant response rating, Sugarbeets [9, 19]: 0
- Plant response rating, Sugarbeets [9, 20]: 0
- Plant response rating, Sugarbeets [9, 21]: 0
- Sugarbeets plant response rating [9, 22]: 2
- Sugarbeets plant response rating [9, 23]: 0
- Velvetleaf plant response rating [10, 17]: 0
- Velvetleaf plant response rating [10, 18]: 0
- Plant response rating, Velvetleaf [10, 19]: 0
- Plant response rating, Velvetleaf [10, 20]: 0
- Plant response rating, Velvetleaf [10, 21]: 0
- Velvetleaf plant response rating [10, 22]: 0
- Velvetleaf plant response rating [10, 23]: 0
- Wheat plant response rating [11, 17]: 0
- Wheat plant response rating [11, 18]: 0
- Plant response rating, Wheat [11, 19]: 0
- Plant response rating, Wheat [11, 20]: 0
- Plant response rating, Wheat [11, 21]: 0
- Wheat plant response rating [11, 22]: 0
- Wheat plant response rating [11, 23]: 0
- Wild oats plant response rating [12, 17]: 0
- Wild oats plant response rating [12, 18]: 1
- Plant response rating, Wild oats [12, 20]: 2
- Plant response rating, Wild oats [12, 21]: 6
- Wild oats plant response rating [12, 22]: 7
- Wild oats plant response rating [12, 23]: 0
- Nutsedge plant response rating [13, 17]: 0
- Nutsedge plant response rating [13, 18]: 0
- Plant response rating, Nutsedge [13, 19]: 0
- Plant response rating, Nutsedge [13, 20]: 0
- Plant response rating, Nutsedge [13, 21]: 0
- Nutsedge plant response rating [13, 22]: 0
- Nutsedge plant response rating [13, 23]: 0
- Rice plant response rating [14, 17]: 0
- Rice plant response rating [14, 25]: 0
- Rice plant response rating [14, 26]: 3
- Rice plant response rating [14, 27]: 0
- Ducksalad plant response rating [15, 17]: 0
- Ducksalad plant response rating [15, 25]: 0
- Ducksalad plant response rating [15, 26]: 0
- Ducksalad plant response rating [15, 27]: 0
- Barnyardgrass plant response rating [16, 17]: 0
- Barnyardgrass plant response rating [16, 25]: 0
- Barnyardgrass plant response rating [16, 26]: 8
- Barnyardgrass plant response rating [16, 27]: 0
